Tested on: DMPK
Assay: DMPK knockdown by transfected antisense oligonucleotides in DM1 C15 myotubes at 0.5 nM and 50 nM
Format: cell-based
Conditions: 0.5 nM oligonucleotide, 72 hours, qPCR, relative to vehicle control
Experimental: Two hundred and thirty-six oligonucleotides for targeting DMPK were generated using in silico analysis. Each individual oligonucleotide was evaluated for their ability to target DMPK in cellulo at two doses—0.5 nM (low dose) and 50 nM (high dose).
Briefly, DM1 C15 immortalized myoblasts were cultured in T-75 flasks until near confluency (˜80% confluent). Myoblasts were then disrupted with trypsin and seeded into 96-well microplates at a density of 50,000 cells/well. Cells were allowed to recover overnight before the growth media was washed out and replaced with a no-serum media to induce differentiation into myotubes. Differentiation proceeded for seven days prior to treatment with DMPK-targeting oligonucleotides.
On day seven following induction of differentiation, DM1 C15 myotubes were transfected with an individual oligonucleotide using 0.3 μL of Lipofectamine MessengerMax per well. All oligonucleotides were tested at both 0.5 nM and 50 nM final concentrations in biological triplicates. After treatment with oligonucleotides, cells were incubated for 72 hours prior to being harvested for total RNA. cDNA was synthesized from the total RNA extracts and qPCR was performed to determine expression levels of DMPK in technical quadruplicate. All qPCR data were analyzed using a traditional […] method and were normalized to a plate-based negative control that comprised cells treated with vehicle control (0.3 μL/well Lipofectamine MessengerMax without any oligonucleotide). Results from these experiments are shown in Table 10. ‘Normalized DMPK Remaining’ for each antisense oligonucleotide in Table 10 refers to the expression level of DMPK in cell treated with said antisense oligonucleotide relative to the negative control that comprised cells treated with vehicle control (wherein the expression level of the negative control has been normalized to equal 1.00)

| Substance | Percent DMPK Reduction [%] |
| --- | --- |
| 246 (GGACGGCCCGGCUUGCUGCC; chemistry not given here) [compound 246] | 58.25 |
| 247 (GGGCCCGGAUCACAGGACUG; chemistry not given here) [compound 247] | 57.97 |
| 248 (CAAACUUGCUCAGCAGUGUC; chemistry not given here) [compound 248] | 31.45 |
| 249 (AAACUUGCUCAGCAGUGUCA; chemistry not given here) [compound 249] | 30.85 |
| 250 (CGGAUGGCCUCCAUCUCCCG; chemistry not given here) [compound 250] | 28.92 |
| 251 (CUCGGCCGGAAUCCGCUCCC; chemistry not given here) [compound 251] | 28.64 |
| 252 (UCUCGGCCGGAAUCCGCUCC; chemistry not given here) [compound 252] | 27.88 |
| 253 (UGCUCAGCAGUGUCAGCAGG; chemistry not given here) [compound 253] | 27.08 |
| 254 (UUGUCGGGUUUGAUGUCCCU; chemistry not given here) [compound 254] | 34.16 |
| 255 (GUUGCGGGUUUGAUGUCCC; chemistry not given here) [compound 255] | 33.31 |
| 256 (UCCGCCAGGUAGAAGCGCGC; chemistry not given here) [compound 256] | 27.99 |
| 258 (AACUUGCUCAGCAGUGUCAG; chemistry not given here) [compound 258] | 19.81 |
| 259 (CAGCUGCGUGAUCCACCGCC; chemistry not given here) [compound 259] | 19.03 |
| 261 (GAAGUCGGCCAGGCGGAUGU; chemistry not given here) [compound 261] | 18.36 |

Same assay, conditions: 0.5 nM oligonucleotide, 72 hours, qPCR, relative to vehicle control = 1.00

| Substance | Normalized DMPK Remaining |
| --- | --- |
| 246 (GGACGGCCCGGCUUGCUGCC; chemistry not given here) [compound 246] | 0.42 |
| 247 (GGGCCCGGAUCACAGGACUG; chemistry not given here) [compound 247] | 0.42 |
| 248 (CAAACUUGCUCAGCAGUGUC; chemistry not given here) [compound 248] | 0.69 |
| 249 (AAACUUGCUCAGCAGUGUCA; chemistry not given here) [compound 249] | 0.69 |
| 250 (CGGAUGGCCUCCAUCUCCCG; chemistry not given here) [compound 250] | 0.71 |
| 251 (CUCGGCCGGAAUCCGCUCCC; chemistry not given here) [compound 251] | 0.71 |
| 252 (UCUCGGCCGGAAUCCGCUCC; chemistry not given here) [compound 252] | 0.72 |
| 253 (UGCUCAGCAGUGUCAGCAGG; chemistry not given here) [compound 253] | 0.73 |
| 254 (UUGUCGGGUUUGAUGUCCCU; chemistry not given here) [compound 254] | 0.66 |
| 255 (GUUGCGGGUUUGAUGUCCC; chemistry not given here) [compound 255] | 0.67 |
| 256 (UCCGCCAGGUAGAAGCGCGC; chemistry not given here) [compound 256] | 0.72 |
| 258 (AACUUGCUCAGCAGUGUCAG; chemistry not given here) [compound 258] | 0.80 |
| 259 (CAGCUGCGUGAUCCACCGCC; chemistry not given here) [compound 259] | 0.81 |
| 261 (GAAGUCGGCCAGGCGGAUGU; chemistry not given here) [compound 261] | 0.82 |

Same assay, conditions: 50 nM oligonucleotide, 72 hours, qPCR, relative to vehicle control

| Substance | Percent DMPK Reduction [%] |
| --- | --- |
| 246 (GGACGGCCCGGCUUGCUGCC; chemistry not given here) [compound 246] | 69.30 |
| 247 (GGGCCCGGAUCACAGGACUG; chemistry not given here) [compound 247] | 61.96 |
| 248 (CAAACUUGCUCAGCAGUGUC; chemistry not given here) [compound 248] | 53.93 |
| 249 (AAACUUGCUCAGCAGUGUCA; chemistry not given here) [compound 249] | 50.69 |
| 250 (CGGAUGGCCUCCAUCUCCCG; chemistry not given here) [compound 250] | 55.57 |
| 251 (CUCGGCCGGAAUCCGCUCCC; chemistry not given here) [compound 251] | 64.75 |
| 252 (UCUCGGCCGGAAUCCGCUCC; chemistry not given here) [compound 252] | 67.46 |
| 253 (UGCUCAGCAGUGUCAGCAGG; chemistry not given here) [compound 253] | 65.78 |
| 254 (UUGUCGGGUUUGAUGUCCCU; chemistry not given here) [compound 254] | 55.56 |
| 255 (GUUGCGGGUUUGAUGUCCC; chemistry not given here) [compound 255] | 61.07 |
| 256 (UCCGCCAGGUAGAAGCGCGC; chemistry not given here) [compound 256] | 80.06 |
| 258 (AACUUGCUCAGCAGUGUCAG; chemistry not given here) [compound 258] | 52.64 |
| 259 (CAGCUGCGUGAUCCACCGCC; chemistry not given here) [compound 259] | 68.34 |
| 261 (GAAGUCGGCCAGGCGGAUGU; chemistry not given here) [compound 261] | 44.04 |

Same assay, conditions: 50 nM oligonucleotide, 72 hours, qPCR, relative to vehicle control = 1.00

| Substance | Normalized DMPK Remaining |
| --- | --- |
| 246 (GGACGGCCCGGCUUGCUGCC; chemistry not given here) [compound 246] | 0.31 |
| 247 (GGGCCCGGAUCACAGGACUG; chemistry not given here) [compound 247] | 0.38 |
| 248 (CAAACUUGCUCAGCAGUGUC; chemistry not given here) [compound 248] | 0.46 |
| 249 (AAACUUGCUCAGCAGUGUCA; chemistry not given here) [compound 249] | 0.49 |
| 250 (CGGAUGGCCUCCAUCUCCCG; chemistry not given here) [compound 250] | 0.44 |
| 251 (CUCGGCCGGAAUCCGCUCCC; chemistry not given here) [compound 251] | 0.35 |
| 252 (UCUCGGCCGGAAUCCGCUCC; chemistry not given here) [compound 252] | 0.33 |
| 253 (UGCUCAGCAGUGUCAGCAGG; chemistry not given here) [compound 253] | 0.34 |
| 254 (UUGUCGGGUUUGAUGUCCCU; chemistry not given here) [compound 254] | 0.44 |
| 255 (GUUGCGGGUUUGAUGUCCC; chemistry not given here) [compound 255] | 0.39 |
| 256 (UCCGCCAGGUAGAAGCGCGC; chemistry not given here) [compound 256] | 0.20 |
| 258 (AACUUGCUCAGCAGUGUCAG; chemistry not given here) [compound 258] | 0.47 |
| 259 (CAGCUGCGUGAUCCACCGCC; chemistry not given here) [compound 259] | 0.32 |
| 261 (GAAGUCGGCCAGGCGGAUGU; chemistry not given here) [compound 261] | 0.56 |

— patent publication US20230144436A1, “MUSCLE TARGETING COMPLEXES AND USES THEREOF FOR TREATING MYOTONIC DYSTROPHY” (Dyne Therapeutics, Inc., priority 2020, published 2023)
